Experimental data as given in US20250304892A1, “APPARATUS, SYSTEM, AND METHOD FOR FORMING A PERTURBABLE BONE MARROW MODEL WITHIN A THREE-DIMENSIONAL MICROPHYSIOLOGICAL SYSTEM” (The Trustees of the University of Pennsylvania, priority 2022, published 2025).

Key:
Format in all cases: cell-based, human
[1] = tested on: micro-engineered bone marrow (MEBM) model; test: Mobilization of blood cells from the MEBM model on vascular perfusion with IL-8 or AMD3100
From the text: When hormones, cytokines, and other soluble signals produced by peripheral tissues reach the bone marrow, they can induce mature blood cells in the hematopoietic niche to transmigrate across the sinusoidal endothelium and enter the bloodstream. This regulated release of blood cells into circulation is termed mobilization, which represents a critical step in immunity and continuous cellular replenishment required for homeostasis of the hematopoietic system. Having validated the transcriptomic signatures of mature hematopoietic cells in the MEBM model and their capacity for physiologically relevant cell-cell signaling, the MEBM model was evaluated to determine whether it could reconstitute the complex process of mobilization in the integrated context of the vascularized hematopoietic niche. The study was specifically focused on investigating the ability of mature neutrophils differentiated from HSCs in the MEBM model to replicate rapid release of their in vivo counterparts from the bone marrow reserve during immune responses to inflammatory insults. To simulate this situation, the vasculature of the micro-engineered niche was perfused with culture media containing physiologically relevant concentrations of interleukin-8 (IL-8) during infection (5,000 μg/ml), a systemic inflammatory cytokine known to stimulate neutrophil release.
In control experiments without IL-8, the vast majority of mature neutrophils identified by their expression of CD66b were retained in the perivascular space. […] Intravascular translocation of these cells occurred rapidly, within one hour of treatment, consistent with the time scale over which neutrophils are mobilized from the native marrow in an inflammatory setting.
To capture the process of mobilization under the dynamic conditions of continuous vascular perfusion, a time-lapse imaging of neutrophils in the micro-engineered niche was performed at physiological flow rates (10 μl/min). In the IL-8-treated replicates, neutrophils were distributed in the perivascular region initially, but upon cytokine stimulation, a large fraction of these cells entered the neighboring blood vessels in less than 20 minutes. The intravasated cells were then quickly cleared from the observation area in the direction of flow. The cellular content of effluent collected from these devices was composed primarily of non-adherent cells characterized by multilobular nuclei and robust expression of CD66b, confirming the release of terminally differentiated mature neutrophils. During the same time period only a few neutrophils were mobilized in the control group.
The MEBM model was also responsive to AMD3100 (Plerixafor), a CXCR4 antagonist clinically used for mobilizing HSCs and other hematopoietic cells from the bone marrow for autologous transplantation.
Statistically analyses described above were performed as follows. Mobilization of neutrophils in response to IL-8 and AMD3100 was assessed by ordinary one-way ANOVA, with Dunnett correction employed for multiple comparisons. Marker expression (CD15 and CD66b) as compared between AMD3100- and IL-8-mobilized groups was tested by unpaired t-test. Cell populations following irradiation were compared using 2-way ANOVA with multiple comparisons testing adjusted by Dunnett correction. Mobilization following infection was compared between infected and non-infected groups by unpaired t-test. Quantities of neutrophils at inflow and outflow position were compared using Welch's t-test to account for unequal variances in the data. Comparisons between multiplexed Luminex cytokine assays were performed using multiple t-tests, corrected by the Holm-Sidak method.

[2] = tested on: micro-engineered bone marrow (MEBM) model; test: Stimulation of erythropoiesis in the MEBM model with erythropoietin; conditions: Erythropoiesis-Specific Medium (EPO 1 ng/ml)
Protocol: Having confirmed the vascularization and HSC colonization of the micro-engineered niche, the potential to deploy the MEBM model to reconstitute multilineage hematopoiesis was investigated. Considering that hematopoiesis in vivo relies on extrinsic cues to control the fate of HSCs, the hematopoietic investigation was conducted by the addition of soluble factors known to drive lineage differentiation. First, the MEBM model was treated with erythropoietin (EPO) (see “Erythropoiesis-Specific Medium” of Table 1) to stimulate erythropoiesis. […] Following this phenotypic organization, the MEBM model produced a substantial number of round, erythroid cells that were distinguishable by their red color and expression of transferrin receptor (i.e., CD71) and glycophorin A. The micro-engineered niche also supported the differentiation of HSCs into myeloid cells. Stimulation of the MEBM model with myelopoietic media (see Table 1) for 21 days produced a marrow construct densely packed with cells of myeloid lineages, most of which were situated proximate the vasculature. A significant number of the cells were terminally differentiated mature neutrophils as identified by their multisegmented nuclei, intracellular secretory granules, and surface marker expression (CD15+/CD66b+).

mobilized neutrophils = test: Boyden chamber migration assay: chemotaxis of mobilized neutrophils in a gradient of IL-8; conditions: over a period of an hour
Protocol: For further investigation, a Boyden chamber migration assay was conducted to measure chemotaxis of mobilized neutrophils in a gradient of IL-8 as a representative endpoint of their functional capacity. […] It was noted that the transmigrated cells in the lower chamber clumped together to form multicellular aggregates, reminiscent of neutrophil swarming in vivo that plays an important functional role in antimicrobial activities of neutrophils.

[3] = image cytometry of CD15 and CD66b staining, cells released by AMD3100

## c1cc(CN2CCCNCCNCCCNCC2)ccc1CN1CCCNCCNCCCNCC1 [AMD3100, Plerixafor, reference compound]
[1]; AMD3100 25 μg/ml
  rate of mobilization compared with the IL-8-treated model: lower than that in the IL-8-treated model
[1]; [3]
  neutrophils among the released cells of myeloid lineage: 56%
  released cells of myeloid lineage: approximately 65%
[1]; perfused with clinical dose 25 μg/ml, in comparison to untreated controls
  increase in the rate at which cells were released from the device: more than fivefold

## EPO: soluble factor added to stimulate erythropoiesis
[2]
  effect of EPO addition on the micro-engineered niche: formation of multicellular complexes

## IL-8: a systemic inflammatory cytokine known to stimulate neutrophil release
[1]; IL-8-induced mobilization, image cytometry
  mature neutrophils in the population of released cells: 76%
[1]; IL-8 infused through the vasculature (5,000 μg/ml), compared with control without IL-8
  egress of CD66b+ cells from the stromal compartment into the vascular lumen: substantial egress of CD66b+ cells
[1]; time-lapse imaging, continuous vascular perfusion at 10 μl/min, upon cytokine stimulation
  time until a large fraction of neutrophils entered the neighboring blood vessels: less than 20 minutes
Mobilized neutrophils
  cells that moved across the membrane: ~80%
